Here are results for twelve compounds from US9273075B2, “Prodrugs of 1,4-benzodiazepinone compounds” (BRISTOL-MYERS SQUIBB COMPANY, priority 2012, dated 2016).

Molecules are shown by their SMILES. ≈ marks a conversion by molar mass, not a printed value. Like-named read-outs stand apart in the source and are kept apart here.

One series is described as follows: Solution Stability Assay. In kind it is physicochemical. As to the method:
Acetonitrile Stock Solution: Acetonitrile Stock Solution of the prodrug was prepared by dissolving 1.5-2.0 mg of weighted compound in 5.0 mL of acetonitrile in a 5 mL volumetric flask.
pH 6.5 Buffer Working Solution: A pH 6.5 Buffer Working Solution of drug was prepared by adding 1.5 mL of the Acetonitrile Stock Solution to 3.5 mL of stability buffer (50 mM potassium phosphate, pH 6.5) in a 10 mL vial, and mixing. Using a 3 mL syringe, ˜3 mL of solution was withdrawn and filtered using the Gelman 0.45 μm syringe filter into a clean 1.5 mL LC vial. This filtered solution will was used to evaluate the prodrug degradation throughout the course of the study. Target concentration: 90-120 μg/mL (70% Aqueous: 30% Acetonitrile)
pH 4.0 Acidic Working Solution: A pH 4.0 Working Solution of drug was prepared by adding 1.5 mL of the Acetonitrile Stock Solution to 3.5 mL of stability buffer (50 mM sodium acetate, pH 4.0) in a 10 mL vial and mixing. Using a 3 mL syringe, ˜3 mL of solution was withdrawn and filtered using the Gelman 0.45 μm syringe filter into a clean 1.5 mL LC vial. This filtered solution was used to evaluate the prodrug degradation throughout the course of the study. Target concentration: 90-120 μg/mL (70% Aqueous: 30% Acetonitrile)
Experimental Methods: Following the sample preparation procedure described above a single sample (n=1) was prepared for each pH condition. The samples were then placed in an HPLC autosampler maintained at 37° C. and samples were analyzed over a 24 h period. Prodrug remaining (%) was reported relative to the initial peak area (t=0 h). In cases where a conversion to parent half-life could be calculated, a t1/2 was generated. Confirmation of the conversion to parent from the prodrug was obtained by LCMS and HPLC analysis of the final timepoint samples.
Typical LC parameters are shown below: • HPLC System: HP1100 Series, Hewlett Packard., Heated autosampler • Analytical column: Synergi 4 u Hydro C18, 4.6 mm×5.0 cm, PHENOMENEX® • Column temperature: 40° C. • Autosampler temp: 37° C. • Flow rate: 1.0 mL/min • Injection Volume: 10 μL • Mobile Phase: A: Acetonitrile • B: 0.1% Phosphoric acid in water • Run Time: 14.0 minutes Typical LCMS parameters are shown below: • LC-MS System: Surveyor HPLC system, ThermoFinnigan LCQ Deca XP Max (Ion trap) • Analytical column: Synergi 4 u Hydro C18, 4.6 mm×5.0 cm, PHENOMENEX® • Column temperature: 40° C. • Autosampler temp: 22° C. • Flow rate: 1.0 mL/min • Injection Volume: 5 μL • Mobile Phase: A: 95% Acetonitrile/5% 20 mM Ammonium Acetate • B: 5% Acetonitrile/95% 20 mM Ammonium Acetate LCQ Parameters: • Sheath Flow Rate: 81.64 • Aux/Sweep Flow Rate: 19.01 • Current (uA): 10.89 • Voltage (kV): 5.00 • Capillary (C): 348.10 • Capillary Voltage (V): 30.44

A short description of series [1]: Thermodynamic Equilibrium Aqueous Solubility Assay. Format: physicochemical. To be noted: thermodynamic from solid. As to the method: Standards Preparation: The calibration standard was prepared by accurately weighing 0.5-0.7 mg of sample in 5 ml of methanol. If the material was not fully soluble in methanol, other solvents such as DMSO or mixed solvents were used.
Test Sample Preparation: An excess amount of powder prodrug was equilibrated with 1 mL of buffer (50 mM potassium phosphate, pH 6.5 and 50 mM sodium acetate, pH 4.0) in a 2 mL glass vial. The solution was sonicated and vortexed for ˜30 seconds. The vials were shaken at 300 rpm at room temperature for 24 hrs. The exact incubation time for a specific prodrug was based on the prior aqueous stability data. If the compound was stable in the buffer up to 24 hrs, then the solubility was measured after 24 hrs, otherwise kinetic solubility data was reported. The final saturated solution was then transferred to a 1.5 mL Eppendorf tube and centrifuged for ˜2 min. at 10000 rpms. The supernatant from the saturated solution was transferred to a glass HPLC vial and the solubility was analyzed by HPLC using a four point calibration curve.

The mark [2] stands for this setting: potassium phosphate buffer with 30% acetonitrile, pH 6.5, read-out: Stability (t1/2, h) pH 6.5 (converted).
Setting [3] is: sodium acetate buffer with 30% acetonitrile, pH 4, read-out: Stability (t1/2, h) pH 4.0 (converted).
[4] abbreviates: potassium phosphate buffer, pH 6.5, aqueous buffer, read-out: Solubility (mg/mL) pH 6.5.
[5] abbreviates: sodium acetate buffer, pH 4, aqueous buffer, read-out: Solubility (mg/mL) pH 4.0.

As for `C[C@H](N)C(=O)OCN1C(=O)[C@@H](NC(=O)[C@H](CCC(F)(F)F)[C@H](CCC(F)(F)F)C(N)=O)N=C(c2ccccc2)c2ccccc21` [Example 5, ((3S)-3-(((2R,3S)-3-Carbamoyl-6,6,6-trifluoro-2-(3,3,3-trifluoropropyl)hexanoyl)amino)-2-oxo-5-phenyl-2,3-dihydro-1H-1,4-benzodiazepin-1-yl)methyl L-alaninate], the values for the half-life in the series “Solution Stability Assay” (setting [2]) and in the series “Solution Stability Assay” (setting [3]) were 5 h and 92 h, respectively. The solubility at 24 h was determined as 3.2 mg/mL (≈ 4970 µM) in series [1] (setting [4]) and 2.3 mg/mL (≈ 3570 µM) in series [1] (setting [5]).

Regarding `NCCSNC(=O)[C@@H](CCC(F)(F)F)[C@@H](CCC(F)(F)F)C(=O)N[C@H]1N=C(c2ccccc2)c2ccccc2NC1=O` [Example 8, (2S,3R)—N-((2-Aminoethyl)sulfanyl)-N′-((3S)-2-oxo-5-phenyl-2,3-dihydro-1H-1,4-benzodiazepin-3-yl)-2,3-bis(3,3,3-trifluoropropyl)succinamide], the half-life in “Solution Stability Assay” (setting [2]) is 334 h; in “Solution Stability Assay” (setting [3]) it was above 500 h. In addition, the solubility at 24 h was above 0.47 mg/mL in series [1] (setting [4]) and 0.52 mg/mL (≈ 842 µM) in series [1] (setting [5]).

On to `NC(=O)[C@@H](CCC(F)(F)F)[C@@H](CCC(F)(F)F)C(=O)N[C@H]1N=C(c2ccccc2)c2ccccc2N(COC(=O)Cc2ccc(OP(=O)(O)O)cc2)C1=O` [Example 1, ((3S)-3-(((2R,3S)-3-Carbamoyl-6,6,6-trifluoro-2-(3,3,3-trifluoropropyl)hexanoyl)amino)-2-oxo-5-phenyl-2,3-dihydro-1H-1,4-benzodiazepin-1-yl)methyl (4-(phosphonooxy)phenyl)acetate], for which the half-life in the series “Solution Stability Assay” (setting [2]) and in “Solution Stability Assay” (setting [3]) was above 500 h throughout. Besides, the results for the solubility at 24 h in series [1] (setting [4]) and in series [1] (setting [5]) were above 1.22 mg/mL and 0.01 mg/mL (≈ 12.7 µM), respectively.

For the compound `CC(C)[C@H](N)C(=O)OCN1C(=O)[C@@H](NC(=O)[C@H](CCC(F)(F)F)[C@H](CCC(F)(F)F)C(N)=O)N=C(c2ccccc2)c2ccccc21` [Example 6, ((3S)-3-(((2R,3S)-3-Carbamoyl-6,6,6-trifluoro-2-(3,3,3-trifluoropropyl)hexanoyl)amino)-2-oxo-5-phenyl-2,3-dihydro-1H-1,4-benzodiazepin-1-yl)methyl L-valinate], the results for the half-life in the series “Solution Stability Assay” (setting [2]) and in “Solution Stability Assay” (setting [3]) were 41 h and above 500 h, respectively. The solubility at 24 h in series [1] (setting [4]) worked out at 0.5 mg/mL (≈ 744 µM); in series [1] (setting [5]), 0.3 mg/mL (≈ 447 µM).

With `CN1CCN(CNC(=O)[C@@H](CCC(F)(F)F)[C@@H](CCC(F)(F)F)C(=O)N[C@H]2N=C(c3ccccc3)c3ccccc3N(C)C2=O)CC1` [Example 15, (2R,3S)—N-((3S)-1-Methyl-2-oxo-5-phenyl-2,3-dihydro-1H-1,4-benzodiazepin-3-yl)-N′-((4-methyl-1-piperazinyl)methyl)-2,3-bis(3,3,3-trifluoropropyl)succinamide], the half-life in “Solution Stability Assay” (setting [2]) and in “Solution Stability Assay” (setting [3]) was above 500 h in each case. The solubility at 24 h in series [1] (setting [4]) was above 0.41 mg/mL; in series [1] (setting [5]), 0.27 mg/mL (≈ 404 µM).

Regarding `Cc1cc(C)c(C(C)(C)CC(=O)OCN2C(=O)[C@@H](NC(=O)[C@H](CCC(F)(F)F)[C@H](CCC(F)(F)F)C(N)=O)N=C(c3ccccc3)c3ccccc32)c(OP(=O)(O)O)c1` [Example 3, (3-(((2R,3S)-3-Carbamoyl-6,6,6-trifluoro-2-(3,3,3-trifluoropropyl)hexanoyl)amino)-2-oxo-5-phenyl-2,3-dihydro-1H-1,4-benzodiazepin-1-yl)methyl 3-(2,4-dimethyl-6-(phosphonooxy)phenyl)-3-methylbutanoate], the half-life in “Solution Stability Assay” (setting [2]) and in the series “Solution Stability Assay” (setting [3]) was above 500 h in each case. The solubility at 24 h in series [1] (setting [4]) is above 0.52 mg/mL; in series [1] (setting [5]), above 0.28 mg/mL.

For `CN1C(=O)[C@@H](NC(=O)[C@H](CCC(F)(F)F)[C@H](CCC(F)(F)F)C(=O)NCN2CCC(O)CC2)N=C(c2ccccc2)c2ccccc21` [Example 19, (2S,3R)—N-((4-Hydroxy-1-piperidinyl)methyl)-N′-((3S)-1-methyl-2-oxo-5-phenyl-2,3-dihydro-1H-1,4-benzodiazepin-3-yl)-2,3-bis(3,3,3-trifluoropropyl)succinamide], the half-life in “Solution Stability Assay” (setting [2]) is 56 h; in “Solution Stability Assay” (setting [3]) it was above 500 h. In addition, the results for the solubility at 24 h in series [1] (setting [4]) and in series [1] (setting [5]) were above 1.42 mg/mL and 0.97 mg/mL (≈ 1450 µM), respectively.

`CC(C)CNCNC(=O)[C@@H](CCC(F)(F)F)[C@@H](CCC(F)(F)F)C(=O)N[C@H]1N=C(c2ccccc2)c2ccccc2N(C)C1=O` [Example 10, (2S,3R)—N-((Isobutylamino)methyl)-N′-((3S)-1-methyl-2-oxo-5-phenyl-2,3-dihydro-1H-1,4-benzodiazepin-3-yl)-2,3-bis(3,3,3-trifluoropropyl)succinamide]: the half-life in “Solution Stability Assay” (setting [2]) is 32 h. Further, the solubility at 24 h in series [1] (setting [4]) is below 0.001 mg/mL; in series [1] (setting [5]), above 0.27 mg/mL.

For the compound `CN1C(=O)[C@@H](NC(=O)[C@H](CCC(F)(F)F)[C@H](CCC(F)(F)F)C(=O)NCN2CCC(O)C2)N=C(c2ccccc2)c2ccccc21` (stereo partly drawn) [Example 20, (2S,3R)—N-((3-Hydroxy-1-pyrrolidinyl)methyl)-N′-((3S)-1-methyl-2-oxo-5-phenyl-2,3-dihydro-1H-1,4-benzodiazepin-3-yl)-2,3-bis(3,3,3-trifluoropropyl)succinamide], the half-life is 15 h in the series “Solution Stability Assay” (setting [2]) and 97 h in the series “Solution Stability Assay” (setting [3]). Also, the solubility at 24 h in series [1] (setting [4]) was found to be 0.39 mg/mL (≈ 595 µM); in series [1] (setting [5]) it was 0.43 mg/mL (≈ 656 µM).

For the compound `CN1C(=O)[C@@H](NC(=O)[C@H](CCC(F)(F)F)[C@H](CCC(F)(F)F)C(=O)NCN2CCC(N(C)C)CC2)N=C(c2ccccc2)c2ccccc21` [Example 18, (2S,3R)—N-((4-(Dimethylamino)-1-piperidinyl)methyl)-N′-((3S)-1-methyl-2-oxo-5-phenyl-2,3-dihydro-1H-1,4-benzodiazepin-3-yl)-2,3-bis(3,3,3-trifluoropropyl)succinamide], the half-life in “Solution Stability Assay” (setting [2]) and in “Solution Stability Assay” (setting [3]) was above 500 h throughout. Also, the solubility at 24 h in series [1] (setting [4]) is above 1.05 mg/mL; in series [1] (setting [5]), 0.29 mg/mL (≈ 416 µM).

Turning to `NC(=O)[C@@H](CCC(F)(F)F)[C@@H](CCC(F)(F)F)C(=O)N[C@H]1N=C(c2ccccc2)c2ccccc2N(COC(=O)C2(N)CC2)C1=O` [Example 7, ((3S)-3-(((2R,3S)-3-Carbamoyl-6,6,6-trifluoro-2-(3,3,3-trifluoropropyl)hexanoyl)amino)-2-oxo-5-phenyl-2,3-dihydro-1H-1,4-benzodiazepin-1-yl)methyl 1-aminocyclopropanecarboxylate], the half-life in “Solution Stability Assay” (setting [2]) and in “Solution Stability Assay” (setting [3]) was above 500 h throughout. For the same compound, the solubility at 24 h in series [1] (setting [4]) was 2.09 mg/mL (≈ 3190 µM); in series [1] (setting [5]) it was 1.78 mg/mL (≈ 2720 µM).

`CN1C(=O)[C@@H](NC(=O)[C@H](CCC(F)(F)F)[C@H](CCC(F)(F)F)C(=O)NCN2CCCC2)N=C(c2ccccc2)c2ccccc21` [Example 22, (2R,3S)—N-((3S)-1-Methyl-2-oxo-5-phenyl-2,3-dihydro-1H-1,4-benzodiazepin-3-yl)-N′-(1-pyrrolidinylmethyl)-2,3-bis(3,3,3-trifluoropropyl)succinamide]: in the series “Solution Stability Assay” (setting [2]), the half-life was 7 h. For the same compound, the solubility at 24 h in series [1] (setting [4]) was 0.03 mg/mL (≈ 46.9 µM); in series [1] (setting [5]), above 0.39 mg/mL.
